Each block holds one molecule with its values, some of them ahead of it.
System: 362531-283-R-J2-PDC complex spheroid viability
Assay: Anticancer human tumor 362531-283-R-J2-PDC patient-derived colon adenocarcinoma cell line growth inhibition [RAS]
Details: for viability, T/C: stronger effect = lower value
Source text: RAS pathway inhibitors in Combinations in Complex Spheroids
A high-throughput screen of multi-cell type tumor spheroids was designed to identify active combinations of RAS pathway inhibitors and targeted small molecules. Complex spheroids include a stromal component modeled by human endothelial cells (HUVEC) and fibroblasts modeled by human mesenchymal stem cells (MSCs). The concentration ranges selected for each drug and investigational agent were based upon clinically achievable concentrations if the clinical Cmax of the agent was known.
Compounds. The drugs and investigational agents: abemaciclib (NSC768073), cobimetinib (NSC768068), divarasib (GDC6063, NSC841802), docetaxel (NSC628503), GDC-1971 (RLY-1971, NSC841576), gemcitabine (NSC613327), inavolisib (NSC800729), ipatasertib (NSC767898), KB-0742 (NSC834161), MRTX-1133 (NSC836407), osimertinib (NSC779217), RMC-4630 (NSC839698), RMC-6236 (NSC851965), RMC-6291 (NSC852671), Ro-3306 (NSC812927), sapanisertib (NSC764658), SN-38 (NSC673596), staurosporine (NSC755774), SY5609 (NSC837396), and tovorafenib (DAY101, NSC766906), were obtained from the National Cancer Institute (NCI) Developmental Therapeutics Program Chemical Repository. The FDA-approved anticancer drug set is available from the NCI Developmental Therapeutics Program. […] The stock solutions were prepared in dimethyl sulfoxide (DMSO, Sigma-Aldrich, St. Louis, MO, cat. D2650) at 800-fold the tested concentration and stored at -70 degrees C prior to their use. All drugs and investigational agents were tested over a range starting from a high concentration at or near the clinical Cmax and decreasing in half-log increments. If the clinical Cmax for an agent had not been determined, the highest concentration tested was 10 microM.
Cell Culture. All cells were maintained in an incubator at 37 degrees C and 5% CO2 with 95% humidity. The PDC lines were cultured according to standard operating procedures established by the NCI PDMR. All PDCs were thawed and cultured in Matrigel-coated flasks prepared with a working solution of 1X Ham's F-12 nutrient mix, without supplementation (Invitrogen, Waltham, MA, cat. 11765054), 100 U/mL penicillin-streptomycin (Invitrogen, cat. 15140122), and 2.5% Matrigel (Corning Inc., Corning, NY, cat. 354248) for the first three passages. The 362531-283-R-J2-PDC and 782815-120-R-J1-PDC lines were cultured in 6C/Colon 1B media, which includes advanced DMEM/F-12 (Thermo Fisher Scientific, cat. 12634028), 10 mM HEPES (Thermo Fisher Scientific, cat. 15630080), 1X GlutaMAX supplement (Thermo Fisher Scientific, cat. 35050061), 0.1 mg/mL primocin (InvivoGen, San Diego, CA, cat. ant-pm-2), 10% defined fetal bovine serum, heat inactivated (HyClone Laboratories Inc., Logan, UT, cat. SH30070.03HI), 50% L-WRN conditioned media (ATCC, cat. CRL-3276), 1.25 mM N-Acetyl-L-cysteine (Sigma-Aldrich, cat. A9165), 10 mM nicotinamide (Sigma-Aldrich, cat. N0636), 1X B-27 supplement (Thermo Fisher Scientific, cat. 17504044), 1X N-2 supplement (Thermo Fisher Scientific, cat. 17502048), 50 ng/mL human EGF (Thermo Fisher Scientific, cat. PHG0311), and 10 microM Y-27632 dihydrochloride (Tocris Bioscience, cat. 1254). The K12877-001-R-J1-PDC line was cultured in 6I media, which includes all 6C/Colon 1B media plus 10 ng/mL human FGF-10 (PeproTech, cat. 100-26), 1 ng/mL human FGF-2 (PeproTech, cat. 100-18B), 1 µM prostaglandin E2 (Tocris Bioscience, cat. 2296), […] hydrocortisone (Sigma-Aldrich, cat. H4001), and […] bovine insulin (Sigma-Aldrich, cat. I6634). The K86415-001-R-J1-PDC line was cultured in 6D media, which includes all 6C/Colon 1B media components minus the L-WRN conditioned media. The 485176-168-R4-J1-PDC was cultured in PANC media, which includes all 6C/Colon 1B media plus 100 ng/mL human FGF-10 (PeproTech, cat. 100-26), 500 nM SB-431542 (Selleckchem, cat. S1067), and 10 nM gastrin (Tocris Bioscience, cat. 3006). […]
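Also: spheroids exposed to the agents for 7 days before readout.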
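For viability, T/C in this document: luminescence viability as percent of DMSO vehicle control wells.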

IC50 (curve of first compound, second compound 0.00316 µM): > 300 nM
IC50 (curve of first compound, second compound 0.01 µM): > 300 nM
IC50 (curve of first compound, second compound 0.0316 µM): > 300 nM
IC50 (curve of first compound, second compound 0.1 µM): > 300 nM
IC50 (curve of first compound, second compound 0.316 µM): > 300 nM
IC50 (curve of first compound, second compound 1 µM): > 300 nM
SMILES: CC1(C)CCC(Nc2ncc(C(F)(F)F)c(-c3c[nH]c4c(P(C)(C)=O)c(C#N)ccc34)n2)CN1 (stereo not given) + C=CC(=O)N1CCN(c2nc(OCC3CCCN3C)nc3c(F)c(-c4nc(N)cc(C)c4C(F)(F)F)c(Cl)cc23)C(C)C1
viability, T/C (second compound 0.00316 µM, first compound 0.000949 µM): 96.5%
viability, T/C (second compound 0.00316 µM, first compound 0.003 µM): 104%
viability, T/C (second compound 0.00316 µM, first compound 0.00949 µM): 103%
viability, T/C (second compound 0.00316 µM, first compound 0.03 µM): 100%
viability, T/C (second compound 0.00316 µM, first compound 0.0949 µM): 107%
viability, T/C (second compound 0.00316 µM, first compound 0.3 µM): 99.1%
viability, T/C (second compound 0.01 µM, first compound 0.000949 µM): 103%
viability, T/C (second compound 0.01 µM, first compound 0.003 µM): 112%
viability, T/C (second compound 0.01 µM, first compound 0.00949 µM): 104%
viability, T/C (second compound 0.01 µM, first compound 0.03 µM): 98.8%
viability, T/C (second compound 0.01 µM, first compound 0.0949 µM): 109%
viability, T/C (second compound 0.01 µM, first compound 0.3 µM): 101%
viability, T/C (second compound 0.0316 µM, first compound 0.000949 µM): 105%
viability, T/C (second compound 0.0316 µM, first compound 0.003 µM): 105%
viability, T/C (second compound 0.0316 µM, first compound 0.00949 µM): 103%
viability, T/C (second compound 0.0316 µM, first compound 0.03 µM): 98.7%
viability, T/C (second compound 0.0316 µM, first compound 0.0949 µM): 106%
viability, T/C (second compound 0.0316 µM, first compound 0.3 µM): 96.5%
viability, T/C (second compound 0.1 µM, first compound 0.000949 µM): 102%
viability, T/C (second compound 0.1 µM, first compound 0.003 µM): 105%
viability, T/C (second compound 0.1 µM, first compound 0.00949 µM): 104%
viability, T/C (second compound 0.1 µM, first compound 0.03 µM): 103%
viability, T/C (second compound 0.1 µM, first compound 0.0949 µM): 104%
viability, T/C (second compound 0.1 µM, first compound 0.3 µM): 107%
viability, T/C (second compound 0.316 µM, first compound 0.000949 µM): 109%
viability, T/C (second compound 0.316 µM, first compound 0.003 µM): 103%
viability, T/C (second compound 0.316 µM, first compound 0.00949 µM): 111%
viability, T/C (second compound 0.316 µM, first compound 0.03 µM): 98.6%
viability, T/C (second compound 0.316 µM, first compound 0.0949 µM): 112%
viability, T/C (second compound 0.316 µM, first compound 0.3 µM): 93.5%
viability, T/C (second compound 1 µM, first compound 0.000949 µM): 99.2%
viability, T/C (second compound 1 µM, first compound 0.003 µM): 101%
viability, T/C (second compound 1 µM, first compound 0.00949 µM): 98.9%
viability, T/C (second compound 1 µM, first compound 0.03 µM): 108%
viability, T/C (second compound 1 µM, first compound 0.0949 µM): 113%
viability, T/C (second compound 1 µM, first compound 0.3 µM): 105%

IC50 (curve of compound): 1.77 µM [middle of 4 runs]
SMILES: CC(Nc1ccc2c(c1)OCCn1cc(N3C(=O)OCC3C(F)F)nc1-2)C(N)=O (stereo not given)
viability, T/C (compound 0.0316 µM): 96.9% [middle of 4 runs]
viability, T/C (compound 0.1 µM): 97.1% [middle of 4 runs]
viability, T/C (compound 1 µM): 63.1% [middle of 4 runs]
viability, T/C (compound 3.16 µM): 43.1% [middle of 4 runs]
viability, T/C (compound 10 µM): 32.6% [middle of 4 runs]

IC50 (curve of compound): > 10000 nM
SMILES: Cc1nc(N2CCC3(CC2)COC(C)C3N)c(CO)nc1Sc1ccnc(N)c1Cl (stereo not given)
viability, T/C (compound 0.0316 µM): 101% [middle of 4 runs]
viability, T/C (compound 0.1 µM): 107% [middle of 4 runs]
viability, T/C (compound 0.316 µM): 100% [middle of 4 runs]
viability, T/C (compound 1 µM): 88.8% [middle of 4 runs]
viability, T/C (compound 3.16 µM): 91.8% [middle of 4 runs]
viability, T/C (compound 10 µM): 80% [middle of 4 runs]

From PubChem BioAssay AID2060909 (Molecular Pharmacology Branch, DTP, NCI, 2025)
